Measured values: ChEMBL document CHEMBL1687876, “Quercetin reduces neutrophil recruitment induced by CXCL8, LTB4, and fMLP: inhibition of actin polymerization” (J Nat Prod, 2011)
Active and inactive are the calls of the source. The rule behind the calls is not given here.

Key:
Mus musculus [1] = experiment: Inhibition of fMLP-induced neutrophil recruitment in Swiss mouse at 30 mg/kg, sc administered pre-inflammatory stimulus after 6 hrs by Newbauer chamber using Romanowsky stain; assay type: functional, organism-based; parameters: dose 30 mg/kg
Mus musculus [2] = experiment: Inhibition of CXCL5-induced neutrophil recruitment in Swiss mouse at 30 mg/kg, sc administered pre-inflammatory stimulus after 6 hrs by Newbauer chamber using Romanowsky stain; assay type: functional, organism-based; parameters: dose 30 mg/kg
Mus musculus [3] = experiment: Inhibition of CXCL1-induced neutrophil recruitment in Swiss mouse at 300 mg/kg, sc administered pre-inflammatory stimulus after 6 hrs by Newbauer chamber using Romanowsky stain; assay type: functional, organism-based; parameters: dose 300 mg/kg
Neutrophil [4] = experiment: Antiinflammatory activity in human neutrophil assessed as inhibition of LTB4-induced neutrophil chemoattraction 10 nM after 2 hrs by Boyden chamber v; assay type: functional, cell-based
Neutrophil [5] = experiment: Antiinflammatory activity in human neutrophil assessed as inhibition of CXCL8-induced neutrophil chemoattraction 300 to 1000 nM after 2 hrs by Boyden chamber v; assay type: functional, cell-based
Neutrophil [6] = experiment: Antiinflammatory activity in human neutrophil assessed as inhibition of fMLP-induced neutrophil chemoattraction 10 nM after 2 hrs by Boyden chamber v; assay type: functional, cell-based
Neutrophil [7] = experiment: Inhibition of FLPR1 protein expression in human neutrophil at 100 nM after 30 mins by flow cytometry; assay type: functional, cell-based
Mus musculus [8] = experiment: Inhibition of LTB4-induced neutrophil recruitment in Swiss mouse at 100 mg/kg, sc administered pre-inflammatory stimulus after 6 hrs by Newbauer chamber using Romanowsky stain; assay type: functional, organism-based; parameters: dose 100 mg/kg
Neutrophil [9] = experiment: Antiinflammatory activity in human neutrophil assessed as inhibition of fMLP-induced neutrophil chemoattraction 300 to 1000 nM after 2 hrs by Boyden chamber v; assay type: functional, cell-based
Neutrophil [10] = experiment: Antiinflammatory activity in human neutrophil assessed as inhibition of LTB4-induced neutrophil chemoattraction 300 to 1000 nM after 2 hrs by Boyden chamber v; assay type: functional, cell-based
Neutrophil [11] = experiment: Inhibition of CXCR1 protein expression in human neutrophil at 100 nM after 30 mins by flow cytometry; assay type: functional, cell-based
Neutrophil [12] = experiment: Inhibition of BLT1 protein expression in human neutrophil at 100 nM after 30 mins by flow cytometry; assay type: functional, cell-based
Mus musculus [13] = experiment: Inhibition of CXCL5-induced neutrophil recruitment in Swiss mouse at 100 mg/kg, sc administered pre-inflammatory stimulus after 6 hrs by Newbauer chamber using Romanowsky stain; assay type: functional, organism-based; parameters: dose 100 mg/kg
Neutrophil [14] = experiment: Inhibition of fMLP-induced actin polymerization in human neutrophil at 100 nM after 30 mins by DAPI staining based immunofluorescence; assay type: functional, cell-based
Mus musculus [15] = experiment: Inhibition of fMLP-induced neutrophil recruitment in Swiss mouse at 100 mg/kg, sc administered pre-inflammatory stimulus after 6 hrs by Newbauer chamber using Romanowsky stain; assay type: functional, organism-based; parameters: dose 100 mg/kg
Neutrophil [16] = experiment: Antiinflammatory activity in human neutrophil assessed as inhibition of CXCL8-induced neutrophil chemoattraction 100 nM after 2 hrs by Boyden chamber v; assay type: functional, cell-based
Neutrophil [17] = experiment: Inhibition of LTB4-induced actin polymerization in human neutrophil at 100 nM after 30 mins by DAPI staining based immunofluorescence; assay type: functional, cell-based
Neutrophil [18] = experiment: Antiinflammatory activity in human neutrophil assessed as inhibition of CXCL8-induced neutrophil chemoattraction 30 nM after 2 hrs by Boyden chamber v; assay type: functional, cell-based
Neutrophil [19] = experiment: Antiinflammatory activity in human neutrophil assessed as inhibition of fMLP-induced neutrophil chemoattraction 30 nM after 2 hrs by Boyden chamber v; assay type: functional, cell-based
Neutrophil [20] = experiment: Antiinflammatory activity in human neutrophil assessed as inhibition of fMLP-induced neutrophil chemoattraction 100 nM after 2 hrs by Boyden chamber v; assay type: functional, cell-based
Neutrophil [21] = experiment: Inhibition of CXCL8-induced actin polymerization in human neutrophil at 100 nM after 30 mins by DAPI staining based immunofluorescence; assay type: functional, cell-based
Mus musculus [22] = experiment: Inhibition of CXCL1-induced neutrophil recruitment in Swiss mouse at 30 mg/kg, sc administered pre-inflammatory stimulus after 6 hrs by Newbauer chamber using Romanowsky stain; assay type: functional, organism-based; parameters: dose 30 mg/kg
Mus musculus [23] = experiment: Inhibition of LTB4-induced neutrophil recruitment in Swiss mouse at 300 mg/kg, sc administered pre-inflammatory stimulus after 6 hrs by Newbauer chamber using Romanowsky stain; assay type: functional, organism-based; parameters: dose 300 mg/kg
Neutrophil [24] = experiment: Antiinflammatory activity in human neutrophil assessed as inhibition of CXCL8-induced neutrophil chemoattraction 10 nM after 2 hrs by Boyden chamber v; assay type: functional, cell-based
Mus musculus [25] = experiment: Inhibition of fMLP-induced neutrophil recruitment in Swiss mouse at 300 mg/kg, sc administered pre-inflammatory stimulus after 6 hrs by Newbauer chamber using Romanowsky stain; assay type: functional, organism-based; parameters: dose 300 mg/kg
Neutrophil [26] = experiment: Antiinflammatory activity in human neutrophil assessed as inhibition of LTB4-induced neutrophil chemoattraction 100 nM after 2 hrs by Boyden chamber v; assay type: functional, cell-based
Mus musculus [27] = experiment: Inhibition of CXCL1-induced neutrophil recruitment in Swiss mouse at 100 mg/kg, sc administered pre-inflammatory stimulus after 6 hrs by Newbauer chamber using Romanowsky stain; assay type: functional, organism-based; parameters: dose 100 mg/kg
Neutrophil [28] = experiment: Antiinflammatory activity in human neutrophil assessed as inhibition of LTB4-induced neutrophil chemoattraction 30 nM after 2 hrs by Boyden chamber v; assay type: functional, cell-based
Mus musculus [29] = experiment: Inhibition of LTB4-induced neutrophil recruitment in Swiss mouse at 30 mg/kg, sc administered pre-inflammatory stimulus after 6 hrs by Newbauer chamber using Romanowsky stain; assay type: functional, organism-based; parameters: dose 30 mg/kg
Mus musculus [30] = experiment: Inhibition of CXCL5-induced neutrophil recruitment in Swiss mouse at 300 mg/kg, sc administered pre-inflammatory stimulus after 6 hrs by Newbauer chamber using Romanowsky stain; assay type: functional, organism-based; parameters: dose 300 mg/kg
Neutrophil [31] = experiment: Inhibition of CXCR2 protein expression in human neutrophil at 100 nM after 30 mins by flow cytometry; assay type: functional, cell-based

With `O=c1c(O)c(-c2ccc(O)c(O)c2)oc2cc(O)cc(O)c12` as the compound, how does the inhibition (Mus musculus [1]) read?
Its inhibition is “Active”.

What about the inhibition (Mus musculus [2]) of the same compound?
Its inhibition is “inactive”.

What about the inhibition (Mus musculus [3]) of the same compound?
The inhibition was “Active”.

And the inhibition (Neutrophil [4])?
Its inhibition is “Active”.

And the inhibition (Neutrophil [5])?
The inhibition was “Active”.

And the inhibition (Neutrophil [6])?
The inhibition was “Active”.

And the inhibition (Neutrophil [7])?
Its inhibition is “inactive”.

And the inhibition (Mus musculus [8])?
The inhibition was “Active”.

What about the inhibition (Neutrophil [9]) of the same compound?
Its inhibition is “Active”.

What about the inhibition (Neutrophil [10]) of the same compound?
The inhibition was “Active”.

What about the inhibition (Neutrophil [11]) of the same compound?
The inhibition was “inactive”.

And the inhibition (Neutrophil [12])?
Its inhibition is “inactive”.

What about the inhibition (Mus musculus [13]) of the same compound?
Its inhibition is “Active”.

What about the inhibition (Neutrophil [14]) of the same compound?
The inhibition was “Active”.

What about the inhibition (Mus musculus [15]) of the same compound?
The inhibition was “Active”.

And the inhibition (Neutrophil [16])?
The inhibition was “Active”.

And the inhibition (Neutrophil [17])?
The inhibition was “Active”.

And the inhibition (Neutrophil [18])?
Its inhibition is “Active”.

And the inhibition (Neutrophil [19])?
The inhibition was “Active”.

And the inhibition (Neutrophil [20])?
Its inhibition is “Active”.

And the inhibition (Neutrophil [21])?
Its inhibition is “Active”.

What about the inhibition (Mus musculus [22]) of the same compound?
The inhibition was “inactive”.

What about the inhibition (Mus musculus [23]) of the same compound?
The inhibition was “Active”.

What about the inhibition (Neutrophil [24]) of the same compound?
Its inhibition is “Active”.

What about the inhibition (Mus musculus [25]) of the same compound?
The inhibition was “Active”.

And the inhibition (Neutrophil [26])?
The inhibition was “Active”.

And the inhibition (Mus musculus [27])?
Its inhibition is “Active”.

What about the inhibition (Neutrophil [28]) of the same compound?
Its inhibition is “Active”.

And the inhibition (Mus musculus [29])?
Its inhibition is “inactive”.

And the inhibition (Mus musculus [30])?
The inhibition was “Active”.

What about the inhibition (Neutrophil [31]) of the same compound?
Its inhibition is “inactive”.
